Assay results published in ChEMBL document CHEMBL1201862, “PubChem BioAssay data set” (2004).
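Step 1: Grow cells in 96-well plates. Step 2: Expose to compound for 48 hours at 5 concentrations. Step 3: Interpolate endpoints linearly; if unreached, use highest concentration. GI50 = concentration required for 50% inhibition of growth.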 Calls of active or inactive are those of the source. No stated cut-off is given here; in the data, active = GI50 up to about 1.1 µM and inactive = higher.

Experiments:
Experiment in all cases: NCI tumour cell line growth inhibition, 48 h
NCI-H226 = test system: NCI-H226
HOP-62 = test system: HOP-62
HOP-92 = test system: HOP-92
786-0 = test system: 786-0
BT-549 = test system: BT-549
SF-539 = test system: SF-539
SF-295 = test system: SF-295
NCI-H23 = test system: NCI-H23
A498 = test system: A498
T47D = test system: T47D
LOX IMVI = test system: LOX IMVI
NCI-H522 = test system: NCI-H522
MCF7 = test system: MCF7
SNB-19 = test system: SNB-19
MDA-MB-231 = test system: MDA-MB-231
HCT-116 = test system: HCT-116
NCI-H460 = test system: NCI-H460
MDA-N = test system: MDA-N
MDA-MB-435 = test system: MDA-MB-435
OVCAR-3 = test system: OVCAR-3

In the case of `COc1cccc2c1C(=N)c1c(O)c3c(c(O)c1C2=O)C[C@@](O)(C(C)=O)C[C@@H]3OC1CC(N)C(O)C(C)O1` (some centres undefined), the GI50 (NCI-H226) is reported as 0.137 µM (active), the GI50 (HOP-62) is reported as 0.125 µM (active) and the GI50 (HOP-92) is reported as 0.655 µM (active). For the same compound, the GI50 (786-0) was 0.171 µM (active), the GI50 (BT-549) was < 0.01 µM (active) and the GI50 (SF-539) was 0.00789 µM (active). The GI50 (SF-295) was 0.000206 µM (active), the GI50 (NCI-H23) was 0.00875 µM (active) and the GI50 (A498) was 3 µM (inactive). The GI50 (T47D) was 0.0047 µM (active), the GI50 (LOX IMVI) was 0.00638 µM (active) and the GI50 (NCI-H522) was 0.163 µM (active). The GI50 (MCF7) was 0.805 µM (active), the GI50 (SNB-19) was 0.00811 µM (active) and the GI50 (MDA-MB-231) was < 0.01 µM (active). For the same compound, the GI50 (HCT-116) was 0.00745 µM (active), the GI50 (NCI-H460) was 0.00573 µM (active) and the GI50 (MDA-N) was < 0.01 µM (active). For the same compound, the GI50 (MDA-MB-435) was < 0.01 µM (active).

With `COC(=O)/C(=N\N)C(C(=O)C(=O)Nc1cc(Cl)ccc1Cl)c1nc2ccc([N+](=O)[O-])cc2nc1O` (centres undefined) the GI50 (NCI-H226) was > 100 µM (inactive), the GI50 (HOP-62) was > 100 µM (inactive) and the GI50 (HOP-92) was > 100 µM (inactive). For the same compound, the GI50 (786-0) was > 100 µM (inactive), the GI50 (BT-549) was > 100 µM (inactive) and the GI50 (SF-539) was > 100 µM (inactive). For the same compound, the GI50 (SF-295) was > 100 µM (inactive), the GI50 (NCI-H23) was > 100 µM (inactive) and the GI50 (A498) was > 100 µM (inactive). For the same compound, the GI50 (T47D) was > 100 µM (inactive), the GI50 (OVCAR-3) was 74.3 µM (inactive) and the GI50 (LOX IMVI) was > 100 µM (inactive). For the same compound, the GI50 (NCI-H522) was > 100 µM (inactive), the GI50 (MCF7) was > 100 µM (inactive) and the GI50 (MDA-MB-231) was > 100 µM (inactive). The GI50 (HCT-116) was > 100 µM (inactive), the GI50 (NCI-H460) was > 100 µM (inactive) and the GI50 (MDA-N) was > 100 µM (inactive). For the same compound, the GI50 (MDA-MB-435) was > 100 µM (inactive).

With `O=C(N/N=C\c1c(O)ccc2ccccc12)c1ccncc1` the GI50 (NCI-H226) was 0.628 µM (active), the GI50 (HOP-62) was 1.31 µM (inactive) and the GI50 (HOP-92) was 1.31 µM (inactive). For the same compound, the GI50 (786-0) was 0.2 µM (active), the GI50 (BT-549) was 0.927 µM (active) and the GI50 (SF-539) was 0.675 µM (active). The GI50 (SF-295) was > 5.98 µM (inactive), the GI50 (NCI-H23) was 1.53 µM (inactive) and the GI50 (A498) was 2.21 µM (inactive). For the same compound, the GI50 (T47D) was 2.49 µM (inactive), the GI50 (OVCAR-3) was 1.22 µM (inactive) and the GI50 (LOX IMVI) was 0.301 µM (active). For the same compound, the GI50 (NCI-H522) was 0.638 µM (active), the GI50 (MCF7) was 3.09 µM (inactive) and the GI50 (SNB-19) was 1.21 µM (inactive). The GI50 (MDA-MB-231) was 0.254 µM (active), the GI50 (HCT-116) was 0.191 µM (active) and the GI50 (MDA-N) was 1.33 µM (inactive). The GI50 (MDA-MB-435) was 1.65 µM (inactive).

`CCn1ncc(Oc2c(Cl)cc(N)cc2Cl)c(Cl)c1=O` was tested, and the GI50 (NCI-H226) was 40.3 µM (inactive), the GI50 (HOP-62) was 44.9 µM (inactive) and the GI50 (HOP-92) was 73.6 µM (inactive). The GI50 (786-0) was 41.5 µM (inactive), the GI50 (BT-549) was 25.6 µM (inactive) and the GI50 (SF-539) was 31.6 µM (inactive). For the same compound, the GI50 (SF-295) was 29 µM (inactive), the GI50 (NCI-H23) was 30.5 µM (inactive) and the GI50 (A498) was 47.3 µM (inactive). The GI50 (T47D) was 50.2 µM (inactive), the GI50 (OVCAR-3) was 17.2 µM (inactive) and the GI50 (LOX IMVI) was 32.9 µM (inactive). The GI50 (MCF7) was 38.7 µM (inactive), the GI50 (SNB-19) was 33.4 µM (inactive) and the GI50 (MDA-MB-231) was 54.6 µM (inactive). The GI50 (HCT-116) was 30.4 µM (inactive), the GI50 (NCI-H460) was 32.2 µM (inactive) and the GI50 (MDA-N) was 29.9 µM (inactive). The GI50 (MDA-MB-435) was 29.1 µM (inactive).

For `N#Cc1ccc(OCc2ccc3nc(-c4ccccc4)c(Cl)nc3c2)cc1`, the GI50 (HOP-62) was 42.7 µM (inactive), the GI50 (HOP-92) was > 100 µM (inactive) and the GI50 (786-0) was 54 µM (inactive). For the same compound, the GI50 (BT-549) was > 100 µM (inactive), the GI50 (SF-539) was > 100 µM (inactive) and the GI50 (SF-295) was > 100 µM (inactive). For the same compound, the GI50 (NCI-H23) was > 100 µM (inactive), the GI50 (A498) was > 100 µM (inactive) and the GI50 (T47D) was > 100 µM (inactive). For the same compound, the GI50 (OVCAR-3) was > 100 µM (inactive), the GI50 (LOX IMVI) was > 100 µM (inactive) and the GI50 (NCI-H522) was > 100 µM (inactive). The GI50 (MCF7) was > 100 µM (inactive), the GI50 (SNB-19) was > 100 µM (inactive) and the GI50 (MDA-MB-231) was > 100 µM (inactive). The GI50 (HCT-116) was > 100 µM (inactive), the GI50 (NCI-H460) was > 100 µM (inactive) and the GI50 (MDA-N) was > 100 µM (inactive). For the same compound, the GI50 (MDA-MB-435) was > 100 µM (inactive).

`CCCCCCCCCCCCO[PH](=O)OCCCCCCCCCCCC` was tested, and the GI50 (NCI-H226) was > 100 µM (inactive), the GI50 (HOP-62) was > 100 µM (inactive) and the GI50 (HOP-92) was > 100 µM (inactive). The GI50 (786-0) was > 100 µM (inactive), the GI50 (BT-549) was > 100 µM (inactive) and the GI50 (SF-539) was > 100 µM (inactive). The GI50 (SF-295) was > 100 µM (inactive), the GI50 (NCI-H23) was > 100 µM (inactive) and the GI50 (A498) was > 100 µM (inactive). For the same compound, the GI50 (T47D) was > 100 µM (inactive), the GI50 (OVCAR-3) was > 100 µM (inactive) and the GI50 (NCI-H522) was > 100 µM (inactive). For the same compound, the GI50 (MCF7) was > 100 µM (inactive), the GI50 (SNB-19) was > 100 µM (inactive) and the GI50 (MDA-MB-231) was > 100 µM (inactive). The GI50 (HCT-116) was > 100 µM (inactive), the GI50 (NCI-H460) was > 100 µM (inactive) and the GI50 (MDA-N) was > 100 µM (inactive). The GI50 (MDA-MB-435) was > 100 µM (inactive).
